Data taken from ChEMBL document CHEMBL3352057, “Novel fluorinated pyrrolo[1,2-a]pyrazine-2,6-dione derivatives: synthesis and anticonvulsant evaluation in animal models of epilepsy” (Bioorg Med Chem, 2014).
Activity calls are given as the source filed them.

Key:
Mus musculus [1] = assay: Neurotoxicity in albino CF1 mouse at 100 mg/kg, ip measured after 0.5 hr; format: toxicity, organism-based; design: dose 100 mg/kg, route intraperitoneal; details: in vivo
Mus musculus [2] = assay: Anticonvulsant activity in albino CF1 mouse assessed as protection against maximal electroshock-induced seizures at 100 mg/kg, ip measured after 0.25 hr; format: functional, organism-based; design: dose 100 mg/kg
Rattus norvegicus [3] = assay: Neurotoxicity in MES Sprague-Dawley rat model at 30 mg/kg, ip measured after 0.25 hr; format: toxicity, organism-based; design: dose 30 mg/kg, route intraperitoneal; details: in vivo
Rattus norvegicus [4] = assay: Anticonvulsant activity in Sprague-Dawley rat assessed as protection against maximal electroshock-induced seizures at 30 mg/kg, ip measured after 0.25 hr; format: functional, organism-based; design: dose 30 mg/kg
Rattus norvegicus [5] = assay: Neurotoxicity in MES Sprague-Dawley rat model at 30 mg/kg, ip measured after 2 hrs; format: toxicity, organism-based; design: dose 30 mg/kg, route intraperitoneal; details: in vivo
Rattus norvegicus [6] = assay: Anticonvulsant activity in Sprague-Dawley rat assessed as protection against maximal electroshock-induced seizures at 30 mg/kg, ip measured after 0.5 hr; format: functional, organism-based; design: dose 30 mg/kg
Rattus norvegicus [7] = assay: Anticonvulsant activity in Sprague-Dawley rat assessed as protection against maximal electroshock-induced seizures at 30 mg/kg, ip measured after 4 hrs; format: functional, organism-based; design: dose 30 mg/kg
Mus musculus [8] = assay: Anticonvulsant activity in albino CF1 mouse assessed as protection against subcutaneous metrazol-induced seizures at 100 mg/kg, ip measured after 1 hr; format: functional, organism-based; design: dose 100 mg/kg
Rattus norvegicus [9] = assay: Neurotoxicity in MES Sprague-Dawley rat model at 30 mg/kg, po measured after 4 hrs; format: toxicity, organism-based; design: dose 30 mg/kg, route oral; details: in vivo
Mus musculus [10] = assay: Anticonvulsant activity in albino CF1 mouse assessed as protection against maximal electroshock-induced seizures at 100 mg/kg, ip measured after 4 hrs; format: functional, organism-based; design: dose 100 mg/kg
Mus musculus [11] = assay: Anticonvulsant activity in albino CF1 mouse assessed as protection against 32 mA current-induced seizures at 100 mg/kg, ip measured after 0.5 hr; format: functional, organism-based; design: dose 100 mg/kg
Rattus norvegicus [12] = assay: Neurotoxicity in MES Sprague-Dawley rat model at 30 mg/kg, po measured after 0.5 hr; format: toxicity, organism-based; design: dose 30 mg/kg, route oral; details: in vivo
Rattus norvegicus [13] = assay: Neurotoxicity in MES Sprague-Dawley rat model at 30 mg/kg, ip measured after 4 hrs; format: toxicity, organism-based; design: dose 30 mg/kg, route intraperitoneal; details: in vivo
Mus musculus [14] = assay: Neurotoxicity in 32 mA current-induced seizure albino CF1 mouse model at 100 mg/kg, ip measured after 4 hrs; format: toxicity, organism-based; design: dose 100 mg/kg, route intraperitoneal; details: in vivo
Mus musculus [15] = assay: Neurotoxicity in albino CF1 mouse at 100 mg/kg, ip measured after 4 hrs; format: toxicity, organism-based; design: dose 100 mg/kg, route intraperitoneal; details: in vivo
Rattus norvegicus [16] = assay: Anticonvulsant activity in Sprague-Dawley rat assessed as protection against maximal electroshock-induced seizures at 30 mg/kg, po measured after 4 hrs; format: functional, organism-based; design: dose 30 mg/kg
Rattus norvegicus [17] = assay: Neurotoxicity in MES Sprague-Dawley rat model at 30 mg/kg, ip measured after 1 hr; format: toxicity, organism-based; design: dose 30 mg/kg, route intraperitoneal; details: in vivo
Rattus norvegicus [18] = assay: Anticonvulsant activity in Sprague-Dawley rat assessed as protection against maximal electroshock-induced seizures at 30 mg/kg, ip measured after 2 hrs; format: functional, organism-based; design: dose 30 mg/kg
Mus musculus [19] = assay: Neurotoxicity in 32 mA current-induced seizure albino CF1 mouse model at 100 mg/kg, ip measured after 0.5 hr; format: toxicity, organism-based; design: dose 100 mg/kg, route intraperitoneal; details: in vivo
Mus musculus [20] = assay: Anticonvulsant activity in albino CF1 mouse assessed as protection against maximal electroshock-induced seizures at 100 mg/kg, ip measured after 0.5 hr; format: functional, organism-based; design: dose 100 mg/kg
Mus musculus [21] = assay: Anticonvulsant activity in albino CF1 mouse assessed as protection against subcutaneous metrazol-induced seizures at 100 mg/kg, ip measured after 4 hrs; format: functional, organism-based; design: dose 100 mg/kg
Mus musculus [22] = assay: Anticonvulsant activity in albino CF1 mouse assessed as protection against subcutaneous metrazol-induced seizures at 100 mg/kg, ip measured after 0.25 hr; format: functional, organism-based; design: dose 100 mg/kg
Rattus norvegicus [23] = assay: Neurotoxicity in MES Sprague-Dawley rat model at 30 mg/kg, po measured after 1 hr; format: toxicity, organism-based; design: dose 30 mg/kg, route oral; details: in vivo
Mus musculus [24] = assay: Anticonvulsant activity in albino CF1 mouse assessed as protection against 32 mA current-induced seizures at 100 mg/kg, ip measured after 2 hrs; format: functional, organism-based; design: dose 100 mg/kg
Mus musculus [25] = assay: Anticonvulsant activity in albino CF1 mouse assessed as protection against maximal electroshock-induced seizures at 100 mg/kg, ip measured after 1 hr; format: functional, organism-based; design: dose 100 mg/kg
Mus musculus [26] = assay: Anticonvulsant activity in albino CF1 mouse assessed as protection against subcutaneous metrazol-induced seizures at 100 mg/kg, ip measured after 0.5 hr; format: functional, organism-based; design: dose 100 mg/kg
Mus musculus [27] = assay: Neurotoxicity in albino CF1 mouse at 100 mg/kg, ip measured after 1 hr; format: toxicity, organism-based; design: dose 100 mg/kg, route intraperitoneal; details: in vivo
Rattus norvegicus [28] = assay: Anticonvulsant activity in Sprague-Dawley rat assessed as protection against maximal electroshock-induced seizures at 30 mg/kg, ip measured after 1 hr; format: functional, organism-based; design: dose 30 mg/kg
Rattus norvegicus [29] = assay: Anticonvulsant activity in Sprague-Dawley rat assessed as protection against maximal electroshock-induced seizures at 30 mg/kg, po measured after 1 hr; format: functional, organism-based; design: dose 30 mg/kg
Rattus norvegicus [30] = assay: Anticonvulsant activity in Sprague-Dawley rat assessed as protection against maximal electroshock-induced seizures at 30 mg/kg, po measured after 0.25 hr; format: functional, organism-based; design: dose 30 mg/kg
Rattus norvegicus [31] = assay: Neurotoxicity in MES Sprague-Dawley rat model at 30 mg/kg, po measured after 0.25 hr; format: toxicity, organism-based; design: dose 30 mg/kg, route oral; details: in vivo
Rattus norvegicus [32] = assay: Anticonvulsant activity in Sprague-Dawley rat assessed as protection against maximal electroshock-induced seizures at 30 mg/kg, po measured after 0.5 hr; format: functional, organism-based; design: dose 30 mg/kg
Rattus norvegicus [33] = assay: Neurotoxicity in MES Sprague-Dawley rat model at 30 mg/kg, ip measured after 0.5 hr; format: toxicity, organism-based; design: dose 30 mg/kg, route intraperitoneal; details: in vivo
Mus musculus [34] = assay: Anticonvulsant activity in albino CF1 mouse assessed as protection against 32 mA current-induced seizures at 100 mg/kg, ip measured after 4 hrs; format: functional, organism-based; design: dose 100 mg/kg
Mus musculus [35] = assay: Neurotoxicity in 32 mA current-induced seizure albino CF1 mouse model at 100 mg/kg, ip measured after 0.25 hr; format: toxicity, organism-based; design: dose 100 mg/kg, route intraperitoneal; details: in vivo
Mus musculus [36] = assay: Anticonvulsant activity in albino CF1 mouse assessed as protection against 32 mA current-induced seizures at 100 mg/kg, ip measured after 1 hr; format: functional, organism-based; design: dose 100 mg/kg
Mus musculus [37] = assay: Neurotoxicity in albino CF1 mouse at 100 mg/kg, ip measured after 0.25 hr; format: toxicity, organism-based; design: dose 100 mg/kg, route intraperitoneal; details: in vivo
Mus musculus [38] = assay: Anticonvulsant activity in albino CF1 mouse assessed as protection against 32 mA current-induced seizures at 100 mg/kg, ip measured after 0.25 hr; format: functional, organism-based; design: dose 100 mg/kg
Mus musculus [39] = assay: Neurotoxicity in 32 mA current-induced seizure albino CF1 mouse model at 100 mg/kg, ip measured after 2 hrs; format: toxicity, organism-based; design: dose 100 mg/kg, route intraperitoneal; details: in vivo
Mus musculus [40] = assay: Neurotoxicity in 32 mA current-induced seizure albino CF1 mouse model at 100 mg/kg, ip measured after 1 hr; format: toxicity, organism-based; design: dose 100 mg/kg, route intraperitoneal; details: in vivo
Rattus norvegicus [41] = assay: Neurotoxicity in MES Sprague-Dawley rat model at 30 mg/kg, po measured after 2 hrs; format: toxicity, organism-based; design: dose 30 mg/kg, route oral; details: in vivo
Rattus norvegicus [42] = assay: Anticonvulsant activity in Sprague-Dawley rat assessed as protection against maximal electroshock-induced seizures at 30 mg/kg, po measured after 2 hrs; format: functional, organism-based; design: dose 30 mg/kg

Measured: Activity

O=C1NC(=O)[C@@H](c2cccc(C(F)(F)F)c2)N2CCCC[C@H]12
active: Mus musculus [11] | Mus musculus [25] | Mus musculus [36] | Mus musculus [38]
Non-toxic: Mus musculus [1] | Rattus norvegicus [3] | Rattus norvegicus [5] | Rattus norvegicus [9] | Rattus norvegicus [12] | Rattus norvegicus [13] | Mus musculus [14] | Mus musculus [15] | Rattus norvegicus [17] | Mus musculus [19] | Rattus norvegicus [23] | Mus musculus [27] | Rattus norvegicus [31] | Rattus norvegicus [33] | Mus musculus [35] | Mus musculus [37] | Mus musculus [39] | Mus musculus [40] | Rattus norvegicus [41]
inactive: all other assays above

O=C1NC(=O)[C@@H]2CCCN2[C@H]1c1ccc(C(F)(F)F)cc1
active: Mus musculus [2] | Mus musculus [11] | Mus musculus [22] | Mus musculus [25] | Mus musculus [26]
inactive: Rattus norvegicus [4] | Rattus norvegicus [6] | Rattus norvegicus [7] | Mus musculus [8] | Mus musculus [10] | Rattus norvegicus [18] | Mus musculus [20] | Mus musculus [21] | Mus musculus [24] | Rattus norvegicus [28] | Mus musculus [34] | Mus musculus [36] | Mus musculus [38]
not listed: Rattus norvegicus [9] | Rattus norvegicus [12] | Rattus norvegicus [16] | Rattus norvegicus [23] | Rattus norvegicus [29] | Rattus norvegicus [30] | Rattus norvegicus [31] | Rattus norvegicus [32] | Rattus norvegicus [41] | Rattus norvegicus [42]
Non-toxic: all other assays above
